Assay results: patent US9962383B2, “Compounds, compositions and methods of agelastatin alkaloids” (Massachusetts Institute of Technology, priority 2013, dated 2018)
Entries after “also recorded” stand apart in the source; their conditions may differ. Where two headings read alike, the source gives them in different places.

Tests used:
U-937 = experiment: 48-hour IC50 by MTS, U-937 lymphoma cells; assay type: cell-based, human
Protocol: (§1) Cells were grown in media supplemented with fetal bovine serum (FBS) and antibiotics (100 μg/mL penicillin and 100 U/mL streptomycin). […] Cells were incubated at 37° C. in a 5% CO2, 95% humidity atmosphere.
(§2) In a 96-well plate, compounds were pre-added as DMSO stocks (1% final) in triplicate to achieve final concentrations of 1 nM to 10 μM on a half log scale. DMSO and cell-free wells served as the live and dead control, respectively. […] IC50 values were determined from three or more independent experiments using TableCurve (San Jose, Calif.).

HeLa = experiment: 48-hour IC50 by SRB, HeLa cervical carcinoma cells; assay type: cell-based, human
Protocol: as §1
(§3) Adherent cells (HeLa, A549, BT549, and IMR90) were added into 96-well plates (5,000 cells/well for HeLa cell line; 2,000 cells/well for A549, BT549, and IMR90 cell lines) in 100 μL media and were allowed to adhere for 2-3 hours. Compounds were solubilized in DMSO as 100× stocks, added directly to the cells (100 μL final volume), and tested over a range of concentrations (1 nM to 10 μM) in triplicate (1% DMSO final) on a half-log scale. DMSO and cell-free wells served as the live and dead control, respectively. […] Briefly, media was removed from the plate, and cells were fixed by the addition of 100 μL cold 10% trichloroacetic acid in water. After incubating at 4° C. for 1 h, the plates were washed in water and allowed to dry. Sulforhordamine B was added as a 0.057% solution in 1% acetic acid (100 μL), and the plates were incubated at room temperature for 30 min, washed in 1% acetic acid, and allowed to dry. […] IC50 values were determined from three or more independent experiments using TableCurve (San Jose, Calif.).

A549 = experiment: 48-hour IC50 by SRB, A549 non-small cell lung carcinoma cells; assay type: cell-based, human
Protocol: as §1, §3

BT549 = experiment: 48-hour IC50 by SRB, BT549 breast carcinoma cells; assay type: cell-based, human
Protocol: as §1, §3

IMR90 = experiment: 48-hour IC50 by SRB, IMR90  lung fibroblasts; assay type: cell-based, human
Protocol: as §1, §3

[1] = tested on: human cell lines (U-937, HeLa, A549, BT549, IMR90); experiment: Ability to induce cell death in the panel of five human cell lines (Table 3); assay type: cell-based; settings: for activity (ability to induce cell death) in words: 48-hour exposure, 1 nM to 10 μM, cell lines of Table 3; for reduction in anticancer potency relative to the compared agelastatin: (−)-2 vs (−)-1, (−)-6 vs (−)-4, D (4) and E (5) vs A (1), Table 3 data
Protocol: Six (−)-agelastatins along with eight closely related derivatives prepared in the above examples were tested (Table 3). The six (−)-agelastatin alkaloids (1-6, respectively), (−)-O-methyl-di-epi-agelastatin A (50), (−)-dehydroagelastatin A (51), (−)-di-epi-agelastatin C (52), (+)-O-methyl-pre-agelastatin A and D (39 and 53, respectively), along with bicyclic pyrroles (+)-44, (+)-45, and triazone (+)-48 were tested for their ability to induce cell death in four human cancer cell lines (U-937, lymphoma; HeLa, cervical carcinoma; A549, non-small cell lung carcinoma; and BT549, breast carcinoma) and one immortalized normal human cell line (IMR90, lung fibroblasts) after a 48-hour exposure. […] Furthermore, enhanced activities in U-937 (20×) cell relative to the other cell lines (Table 3) were observed.
Adherent cells (HeLa, A549, BT549, and IMR90) were added into 96-well plates (5,000 cells/well for HeLa cell line; 2,000 cells/well for A549, BT549, and IMR90 cell lines) in 100 μL media and were allowed to adhere for 2-3 hours. Compounds were solubilized in DMSO as 100× stocks, added directly to the cells (100 μL final volume), and tested over a range of concentrations (1 nM to 10 μM) in triplicate (1% DMSO final) on a half-log scale. DMSO and cell-free wells served as the live and dead control, respectively. After 48 h of continuous exposure, the plates were evaluated using the SRB colorimetric assay as described previously (V. Vichai, K. Kirtikara, Nature Prot., 2006, 1, 1112). Briefly, media was removed from the plate, and cells were fixed by the addition of 100 μL cold 10% trichloroacetic acid in water. After incubating at 4° C. for 1 h, the plates were washed in water and allowed to dry. Sulforhordamine B was added as a 0.057% solution in 1% acetic acid (100 μL), and the plates were incubated at room temperature for 30 min, washed in 1% acetic acid, and allowed to dry. The dye was solubilized by adding 10 mM Tris base solution (pH 10.5, 200 μL) and incubating at room temperature for 30 min Plates were read at λ=510 nm. IC50 values were determined from three or more independent experiments using TableCurve (San Jose, Calif.).
In a 96-well plate, compounds were pre-added as DMSO stocks (1% final) in triplicate to achieve final concentrations of 1 nM to 10 μM on a half log scale. DMSO and cell-free wells served as the live and dead control, respectively. Suspension cells (U-937, CEM, CA46, Daudi, HL-60, and Jurkat; 10,000 cells/well) cells were distributed in 100 μL media to the compound-containing plate. After 48 h, cell viability was assessed by adding 20 μL of a PMS/MTS solution (A. H. Cory, T. C. Owen, J. A. Barltrop, J. G. Cory, Cancer Commun., 1991, 3, 207) to each well, allowing the dye to develop at 37° C. until the live control had processed MTS, and reading the absorbance at λ=490 nm. IC50 values were determined from three or more independent experiments using TableCurve (San Jose, Calif.).

CEM = experiment: 48-hour IC50 by MTS, CEM acute lymphoblastic leukemia cells; assay type: cell-based, human
Protocol: as §1, §2

Jurkat = experiment: 48-hour IC50 by MTS, Jurkat acute T-cell leukemia cells; assay type: cell-based, human
Protocol: as §1, §2

Daudi = experiment: 48-hour IC50 by MTS, Daudi Burkitt's lymphoma cells; assay type: cell-based, human
Protocol: as §1, §2

HL-60 = experiment: 48-hour IC50 by MTS, HL-60 acute promyelocytic leukemia cells; assay type: cell-based, human
Protocol: as §1, §2

CA46 = experiment: 48-hour IC50 by MTS, CA46 Burkitt's lymphoma cells; assay type: cell-based, human
Protocol: as §1, §2

[2] = tested on: procaspase-3 and PARP-1 cleavage; experiment: Western blot analysis of procaspase-3 and PARP-1 cleavage in U-937 cells; assay type: cell-based, human; settings: 24 hours
Protocol: FIG. 2. […] Western blot analysis of procaspase-3 and PARP-1 cleavage at 24 hours in U-937 cells using β-actin as loading control. Compounds were tested at indicated concentrations and STS (10 nM); C3=caspase-3; PARP=poly(ADP-ribose) polymerase 1; PC3=procaspase-3; STS=staurosporine.

U-937 cells = experiment: Apoptosis in U-937 cells with Annexin V-FITC and propidium iodide; assay type: cell-based, human; settings: 21 hours, flow cytometry
Protocol: FIG. 3. […] Analysis of phosphatidylserine exposure and propidium iodide inclusion at 21 hours in U-937 cells. Compounds were tested at indicated concentrations and STS was used as a positive control for apoptosis. Samples were analyzed by flow cytometry for the relative timing of phosphatidylserine exposure relative to PI inclusion. FITC=fluorescein isothiocyanate; PI=propidium iodide; STS=staurosporine.
DMSO stocks of compounds were added to a 24-well plate in singlicate (0.2% DMSO final). […] Following treatment, the cell suspensions were transferred to flow cytometry tubes and pelleted (500 g, 3 min). The media was removed by aspiration, and cells were resuspended in 200 μL AnnV binding buffer (10 mM HEPES, pH 7.4, 140 mM NaCl, 2.5 mM CaCl2) with 5 μg/mL PI and 1:90 dilution of AnnV. Samples were analyzed using flow cytometry.

synchronized U-937 cells = experiment: Cell cycle arrest in thymidine-synchronized U-937 cells; assay type: cell-based, human; settings: 16 hours, PI, flow cytometry
Protocol: Samples were fixed, treated with an RNAse, stained with PI, and analyzed by flow cytometry. Taxol, a microtubule stabilizer, was used as a positive control. Error bars represent standard deviation of the mean, n=3. * p<0.01. PI=propidium iodide.
U-937 cells were split to 50% confluency (250,000 cells/mL) and treated with 2 mM thymidine for 10 hours. The cells were then pelleted (500 g, 3 minutes) and washed with PBS before being resuspended in thymidine-free media and allowed to recover for 13 hours. The cells were then re-blocked with 2 mM thymidine for 10 hours, and then washed with PBS as before and resuspended in media (250,000 cells/mL).
DMSO stocks of compounds were added to a 24-well plate in triplicate (0.2% DMSO final), after which 1 mL of the prepared cell suspension was added. Following a 16 h incubation, the cell suspensions were transferred to 2 mL tubes and pelleted (600 g, 3 min). The media was removed by aspiration, and the cells were fixed with 0.5 mL of ice cold 70% ethanol with vortexing. The samples were fully fixed at −20° C. for 3 hours. The samples were then pelleted (1000 g, 5 min) and the supernatant was removed via aspiration. […] Prior to reading, the samples were taken up in 150 μL of 50 μg/mL propidium iodide in PBS and transferred to flow cytometry tubes. Samples were analyzed based on whole, single cells.

tubulin dynamics = experiment: Tubulin microscopy with HeLa cells; assay type: cell-based, human; settings: 16 hours, confocal microscopy
Protocol: HeLa cells were treated with compound for 16 hours, fixed, stained, and visualized using confocal microscopy.
Round, 1.5 mm coverslips (No. 1.5) were sterilized with ultraviolet light and placed in a 12-well plate. HeLa cells (100,000 cells/well) were added and allowed to adhere for eight hours. Compounds were then added as DMSO stocks to achieve a final DMSO concentration of 1%, and the plates were returned to the incubator for 16 hours.
Following incubation, the media was removed, and the coverslips were fixed with 0.5 mL Microtubulin Stabilizing Buffer (MTSB, 80 mM PIPES, pH 6.8, 1 mM MgCl2, 5 mM EGTA, 0.5% TX-100)+0.5% glutaraldehyde for 10 minutes at room temperature, after which the fixative was removed and the sample was quenched with the addition of 0.5 mL of freshly-prepared 1 mg/mL NaBH4 in PBS. After a 5 min incubation, the solution was removed by aspiration and the coverslips were washed with PBS.
Coverslips were transferred to parafilm-lined culture dishes (cell-side up), and 40 μL of 50 μg/mL RNase A in Antibody Diluting Solution (AbDil, PBS, pH 7.4, 0.2% TX-100, 2% BSA, 0.1% NaN3) with 1:50 dilution of anti-α-tubulin-FITC antibody was added to all samples. The samples were allowed to incubate at room temperature in the dark for 2.5 hours, after which the coverslips were washed three times with PBS+0.1% TX-100. […]

[3] = IMR90 immortalized lung fibroblasts

Compound	activity (ability to induce cell death) in words [1]	IC50 (U-937)	IC50 (HeLa)	IC50 (A549)	IC50 (BT549)	IC50 (IMR90; [3])	IC50 (CEM)	IC50 (Jurkat)	IC50 (Daudi)	IC50 (HL-60)	IC50 (CA46)	also measured
CO[C@H]1NC(=O)c2ccc(Br)n2[C@@H]1Cc1c[nH]c(=O)n1C [(+)-39, (+)-O-methyl-pre-agelastatin A]	None											IC50 (U-937; Homo sapiens): > 10 µM; IC50 (HeLa; Homo sapiens): > 10 µM; IC50 (A549; Homo sapiens): > 10 µM; IC50 (BT549; Homo sapiens, BT-549): > 10 µM; IC50 (IMR90; Homo sapiens, IMR-90, IMR90 immortalized lung fibroblasts): > 10 µM
COC1NC(=O)c2ccc(Br)n2C1Cc1c[nH]c(=O)[nH]1 (single isomer, unassigned; (+)) [(+)-53, (+)-O-methyl-pre-agelastatin D]	None	> 10 µM	> 10 µM	> 10 µM	> 10 µM	> 10 µM						
CN1C(=O)N[C@@]2(O)[C@@H]3NC(=O)c4ccc(Br)n4[C@@H]3C[C@@]12O [(−)-3, (−)-agelastatin C]		> 10 µM	> 10 µM	> 10 µM	> 10 µM	> 10 µM	2100 ± 1300 nM	5310 ± 350 nM	7200 ± 2900 nM	> 10 µM	> 10000 nM	activity (ability to induce cell death) in words ([1]; listed as (−)-agelastatin C (3)): little activity at the concentrations examined; also recorded: abolishes activity
(−)-dehydroagelastatin A [(−)-51]	None	> 10 µM	> 10 µM	> 10 µM	> 10 µM	> 10 µM						
(−)-O-methyl-di-epi-agelastatin A [(−)-50]	None	> 10 µM	> 10 µM	> 10 µM	> 10 µM	> 10 µM						
O=C1N[C@H]2[C@@H]3NC(=O)c4cc(Br)c(Br)n4[C@@H]3C[C@@]2(O)N1 [(−)-6, (−)-agelastatin F]	little activity at the concentrations examined	> 10 µM	> 10 µM	> 10 µM	> 10 µM	> 10 µM	> 10000 nM	> 10000 nM	> 10000 nM	> 10 µM	> 10000 nM	
(−)-di-epi-agelastatin C [(−)-52]	None	> 10 µM	> 10 µM	> 10 µM	> 10 µM	> 10 µM						
(−)-agelastatin B [(−)-2]	relatively weaker activity	1.06 ± 0.16 µM	4.8 ± 1.2 µM	> 10 µM	4.8 ± 1.1 µM	> 10 µM	290 ± 200 nM	750 ± 440 nM	460 ± 280 nM	2.4 ± 1 µM	1070 ± 420 nM	
O=C1N[C@H]2[C@@H]3NC(=O)c4ccc(Br)n4[C@@H]3C[C@@]2(O)N1 [(−)-4, (−)-agelastatin D]		0.24 ± 0.033 µM	1 ± 0.2 µM	0.92 ± 0.16 µM	0.631 ± 0.082 µM	2.75 ± 0.6 µM	74 ± 25 nM	210 ± 63 nM	202 ± 15 nM	0.54 ± 0.12 µM	460 ± 240 nM	activation of procaspase-3 to active caspase-3 and cleavage of PARP-1 [2]: dose-dependent activation; apoptosis (phosphatidylserine exposure and propidium iodide inclusion) (U-937 cells): induced dose-dependent apoptosis; G2/M cell cycle arrest (synchronized U-937 cells): dose-dependent G2/M cell cycle arrest; effect on tubulin dynamics (tubulin dynamics): do not affect tubulin dynamics; reduction in anticancer potency relative to the compared agelastatin [1]: 1-5 fold
CO[C@@]12C[C@@H]3[C@@H](NC(=O)c4ccc(Br)n43)[C@@H]1NC(=O)N2C [(−)-5, (−)-agelastatin E]	relatively weaker activity	2.56 ± 0.13 µM	8.6 ± 0.81 µM	> 10 µM	6.9 ± 2.5 µM	> 10 µM	830 ± 370 nM	1500 ± 330 nM	1410 ± 530 nM	4.6 ± 3.6 µM	2450 ± 950 nM	reduction in anticancer potency relative to the compared agelastatin [1]: > 10 fold
